In PubChem BioAssay (NCI) one finds TGI and GI50 data, which are given here for 9 molecules.

Test systems include TK-10 renal; ACHN renal; SK-MEL-28 melanoma; HT29 colon; DU-145 prostate; U251 CNS; SK-MEL-5 melanoma; SF-295 CNS; COLO 205 colon; 786-0 renal.
Assay in all cases: DTP human tumour cell line panel, 48 h

A word on the TGI: it is the concentration giving total growth inhibition. For orientation: GI50 means the concentration at which growth is held to half of that of the control.

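Compound exposure: 48 hours, 5 concentrations, 96-well plates. The concentration for 50% growth inhibition is given as GI50. TGI: concentration producing complete growth inhibition.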 A value given as a limit tells only on which side of the number the result lay.

As to `Cc1nc2c(C)ccc([N+](=O)[O-])c2c(NCCCN(C)C)c1C`, the TGI with TK-10 renal is over 55.7 µM; in the assay with ACHN renal, over 100 µM; in the assay on SK-MEL-28 melanoma, over 54.8 µM; in the assay with HT29 colon it was over 70.8 µM; in the assay on DU-145 prostate it was over 100 µM; in the assay with U251 CNS it was over 100 µM. For the same molecule, the total growth inhibition concentration (TGI) in the assay on SK-MEL-5 melanoma was 27.2 µM; with SF-295 CNS, over 100 µM; with COLO 205 colon, 47.6 µM; with 786-0 renal, over 100 µM.
`COC(=O)c1c(C)nc(C)c2c1C(=O)C(Br)=C(NCc1ccccc1)C2=O`: the GI50 was 10.1 µM in the assay on TK-10 renal; 3.08 µM in the assay on ACHN renal; 5.79 µM in the assay with SK-MEL-28 melanoma; 2.97 µM with HT29 colon; 4.26 µM in the assay on DU-145 prostate; 2.74 µM in the assay with U251 CNS. Also, the GI50 in the assay on SK-MEL-5 melanoma was 1.47 µM; in the assay with SF-295 CNS, 3.04 µM; with COLO 205 colon, 1.7 µM; in the assay with 786-0 renal, 4.65 µM. In addition, the TGI with TK-10 renal came out at 21.9 µM; in the assay on ACHN renal it was 9.97 µM; in the assay with SK-MEL-28 melanoma, 17.5 µM; in the assay on HT29 colon, 7.96 µM; in the assay on DU-145 prostate, 13 µM; in the assay with U251 CNS, 8.34 µM. Besides, the TGI worked out at 2.85 µM in the assay on SK-MEL-5 melanoma, 10.4 µM with SF-295 CNS, 3.63 µM in the assay with COLO 205 colon and 16.3 µM with 786-0 renal.
Consider `CC1(C)N=C(N)N=C(N)N1c1ccc(CCCC(=O)Nc2ccc(S(=O)(=O)F)cc2)cc1`, for which the GI50 in the assay on TK-10 renal was 7.63 µM; in the assay on ACHN renal, 58.7 µM; in the assay on SK-MEL-28 melanoma it was 16 µM; in the assay on HT29 colon it was 2.9 µM; in the assay on DU-145 prostate, 6.98 µM; in the assay with U251 CNS, 9.22 µM. In addition, the GI50 in the assay on SK-MEL-5 melanoma was 3.2 µM; in the assay on SF-295 CNS, 38.6 µM; with COLO 205 colon, 5.59 µM; in the assay with 786-0 renal, 4.97 µM. In addition, the TGI with TK-10 renal, in the assay on ACHN renal, in the assay on SK-MEL-28 melanoma, with HT29 colon, in the assay on DU-145 prostate and with U251 CNS was over 100 µM throughout. Moreover, the total growth inhibition concentration (TGI) in the assay with SK-MEL-5 melanoma is 28.1 µM; with SF-295 CNS it was over 100 µM; in the assay with COLO 205 colon it was over 100 µM; in the assay with 786-0 renal, over 100 µM.
As to `COc1cc2ncn(-c3cc(OCc4ccccc4C(F)(F)F)c(C(N)=O)s3)c2cc1OC`, the GI50 is 3.29 µM in the assay with TK-10 renal; 2.79 µM in the assay with ACHN renal; 1.5 µM in the assay with SK-MEL-28 melanoma; 0.0889 µM in the assay with HT29 colon; 0.0924 µM in the assay on DU-145 prostate; 0.206 µM in the assay on U251 CNS. Also, the 50% growth inhibitory concentration (GI50) in the assay with SK-MEL-5 melanoma was 0.106 µM; in the assay on SF-295 CNS it was 0.131 µM; in the assay on COLO 205 colon, 0.117 µM; with 786-0 renal it was 1.56 µM. Further, the TGI in the assay with TK-10 renal was 12.8 µM; in the assay with ACHN renal it was over 25 µM; in the assay on SK-MEL-28 melanoma, over 25 µM; with HT29 colon it was over 25 µM; in the assay on DU-145 prostate it was 0.407 µM; in the assay on U251 CNS it was over 19.3 µM. Further, the TGI with SK-MEL-5 melanoma is over 25 µM; in the assay on SF-295 CNS, 6.9 µM; in the assay with COLO 205 colon, over 25 µM; in the assay with 786-0 renal it was 22.5 µM.
On to `COc1cc2c(c(OC)c1OC)-c1cc(I)c(O)cc1[C@@H](NC(C)=O)CC2`, for which the GI50 is over 44.6 µM in the assay on TK-10 renal; 0.383 µM in the assay with ACHN renal; 0.999 µM in the assay with SK-MEL-28 melanoma; 0.036 µM in the assay on HT29 colon; 0.0398 µM in the assay with DU-145 prostate; 0.0483 µM in the assay on U251 CNS. Besides, the concentration for 50% growth inhibition (GI50) in the assay with SK-MEL-5 melanoma is 0.0358 µM; in the assay with SF-295 CNS, 0.037 µM; with COLO 205 colon, 0.0385 µM; in the assay with 786-0 renal it was 0.0614 µM. For the same molecule, the concentration for total growth inhibition (TGI) in the assay on TK-10 renal was over 100 µM; in the assay on ACHN renal it was over 100 µM; in the assay with SK-MEL-28 melanoma, over 100 µM; in the assay on HT29 colon it was 10.7 µM; in the assay on DU-145 prostate, 0.292 µM; in the assay on U251 CNS, over 100 µM. Also, the TGI in the assay on SK-MEL-5 melanoma is 0.244 µM; in the assay with SF-295 CNS, over 100 µM; in the assay on COLO 205 colon, 0.155 µM; in the assay with 786-0 renal it was over 100 µM.
With `O=c1ccc(N=Nc2ccccc2)ccc1O`, the TGI in the assay with TK-10 renal was 60.2 µM; in the assay on ACHN renal it was 26 µM; in the assay with SK-MEL-28 melanoma, 32.9 µM; in the assay on HT29 colon, 32.1 µM; in the assay on DU-145 prostate, 39.3 µM; with U251 CNS, 20.2 µM. Besides, the total growth inhibition concentration (TGI) with SK-MEL-5 melanoma turned out to be 23.6 µM; in the assay on SF-295 CNS it was 20.9 µM; in the assay with COLO 205 colon, 31.7 µM; with 786-0 renal it was 58 µM.
For `COc1cccc(/C=C2\N=C(c3ccccc3)OC2=O)c1`, the TGI with TK-10 renal, in the assay with ACHN renal, in the assay on SK-MEL-28 melanoma, with HT29 colon, with DU-145 prostate and with U251 CNS was over 100 µM in each case. The TGI with SK-MEL-5 melanoma, with SF-295 CNS, in the assay with COLO 205 colon and in the assay with 786-0 renal was over 100 µM throughout.
For the molecule `O=[N+]([O-])c1ccccc1N=Nc1c(O)[nH]c2c(Cl)cccc12`, the total growth inhibition concentration (TGI) with TK-10 renal was over 54.9 µM; with ACHN renal, over 45.8 µM; in the assay on SK-MEL-28 melanoma it was over 72.4 µM; in the assay with HT29 colon it was 99.4 µM; with DU-145 prostate it was over 79.2 µM; with U251 CNS it was over 51.5 µM. The total growth inhibition concentration (TGI) in the assay on SK-MEL-5 melanoma is over 46.5 µM; in the assay with SF-295 CNS it was 31.6 µM; in the assay with COLO 205 colon it was over 100 µM; with 786-0 renal, 31.1 µM.
Regarding `CN1C2C=CC(=O)C1C1C(=O)N(c3ccccc3)C(=O)C12` (stereo not given), the GI50 with TK-10 renal was 4.55 µM; in the assay with ACHN renal, 6.93 µM; in the assay on SK-MEL-28 melanoma, 3.62 µM; with HT29 colon, 3.92 µM; in the assay on DU-145 prostate it was 2.34 µM; in the assay with U251 CNS, 7.16 µM. The GI50 in the assay with SK-MEL-5 melanoma was 11.8 µM; in the assay with SF-295 CNS it was 3.06 µM; in the assay with COLO 205 colon it was 7.81 µM; in the assay with 786-0 renal, 3.57 µM. The total growth inhibition concentration (TGI) with TK-10 renal worked out at 18.9 µM; with ACHN renal it was 20.9 µM; with SK-MEL-28 melanoma, 16.7 µM; in the assay with HT29 colon, 23.4 µM; in the assay with DU-145 prostate, 6.69 µM; with U251 CNS, 20.8 µM. For the same molecule, the TGI was 24.3 µM in the assay on SK-MEL-5 melanoma, 36.7 µM in the assay on SF-295 CNS, 22 µM with COLO 205 colon and 15.4 µM in the assay with 786-0 renal.
